# Test results from US20160130226A1, “SPIRO-SUBSTITUTED OXINDOLE DERIVATIVES HAVING AMPK ACTIVITY” (BOEHRINGER INGELHEIM INTERNATIONAL GMBH, priority 2013, published 2016).
# Biological target: T1, AMPK beta 1 (Homo sapiens, UniProt Q13131+Q9Y478)
# T1 construct: in-cell-ELISA for phospho-ACC (Acetyl-CoA carboxylase 1) in HepG2 cells (liver); endogenous in cells; host or cells: HepG2 (assignment to the beta 1 column inferred)
# Assay: in-cell-ELISA for phospho-ACC: activation of AMPK, beta 1 (HepG2 cells / C2C12 myotubes)
# Format: cell-based
# Conditions: 2 h, percentage activation over vehicle control; for activation at 10 µM / activation at 3 µM / activation at 1 µM: read-out: Percentage activation of beta 1 at given concentration
# Description: Activation of AMPK by various compounds were measured using in-cell-ELISA for phospho-ACC (Acetyl-CoA carboxylase 1) in HepG2 cells (liver) and fully differentiated myotubes (C2C12 cells) grown in 96 well plate. Cells were treated with 1 μM, 3 μM or 10 μM of the molecule (Example) for 2 h in serum free DMEM media. After methanol fixation, cells were blocked with BSA followed by addition of anti-phospho ACC antibody (Cell Signaling) and HRP conjugated secondary antibody. Absorbance values taken at 450 nm were normalized with total DNA (Hoechest stain). Results were expressed as percentage activation over vehicle control.
# Percentage activation at compound (Example) concentration of 1, 3 or 10 μM for compounds according to the invention are shown in the following table. The number of the compound corresponds to the number of the Example (Ex) in the experimental section.
# T1 sequence (Q9Y478 2-270 limits assumed): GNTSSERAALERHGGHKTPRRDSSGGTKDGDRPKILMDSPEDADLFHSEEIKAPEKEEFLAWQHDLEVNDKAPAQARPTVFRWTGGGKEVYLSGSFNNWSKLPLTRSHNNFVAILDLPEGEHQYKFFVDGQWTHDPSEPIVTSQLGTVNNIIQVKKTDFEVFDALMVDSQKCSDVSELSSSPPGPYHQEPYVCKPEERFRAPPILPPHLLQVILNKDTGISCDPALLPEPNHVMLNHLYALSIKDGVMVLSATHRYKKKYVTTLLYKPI
# T1 sequence (Q13131 whole entry): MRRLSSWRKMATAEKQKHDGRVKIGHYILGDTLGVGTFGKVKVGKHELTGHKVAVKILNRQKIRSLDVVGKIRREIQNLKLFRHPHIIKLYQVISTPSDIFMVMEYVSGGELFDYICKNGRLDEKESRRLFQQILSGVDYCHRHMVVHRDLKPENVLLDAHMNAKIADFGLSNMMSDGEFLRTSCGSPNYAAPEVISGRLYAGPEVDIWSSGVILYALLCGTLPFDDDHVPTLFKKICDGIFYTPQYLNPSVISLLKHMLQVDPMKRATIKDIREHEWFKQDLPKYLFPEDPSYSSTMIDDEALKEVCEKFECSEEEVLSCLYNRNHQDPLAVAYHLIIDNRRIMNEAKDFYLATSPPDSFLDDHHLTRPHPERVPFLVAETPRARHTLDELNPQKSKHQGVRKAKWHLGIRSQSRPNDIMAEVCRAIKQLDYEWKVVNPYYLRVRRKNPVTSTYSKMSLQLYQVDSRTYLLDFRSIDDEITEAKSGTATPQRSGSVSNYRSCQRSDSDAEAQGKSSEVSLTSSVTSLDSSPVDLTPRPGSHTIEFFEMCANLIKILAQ
# T1 sequence (P54619 whole entry partner): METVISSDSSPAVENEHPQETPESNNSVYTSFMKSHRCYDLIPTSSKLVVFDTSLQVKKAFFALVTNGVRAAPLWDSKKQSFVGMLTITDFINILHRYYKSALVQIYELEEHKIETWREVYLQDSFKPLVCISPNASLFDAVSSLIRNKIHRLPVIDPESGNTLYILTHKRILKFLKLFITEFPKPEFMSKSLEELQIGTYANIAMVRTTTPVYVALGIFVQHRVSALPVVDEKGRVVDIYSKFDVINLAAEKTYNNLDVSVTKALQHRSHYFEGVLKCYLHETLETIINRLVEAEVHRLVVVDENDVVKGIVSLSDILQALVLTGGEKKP
smiles,measurement,setting,value
Cc1ccc(C2CC23C(=O)Nc2cc(F)c(-c4ccc(-c5ccccc5O)cc4)cc23)cc1C(=O)O (centres unmarked) [Example 4],activation at 10 µM,10 μM,83%
Cc1ccc(C2CC23C(=O)Nc2cc(Cl)c(-c4ccc(-c5ccncc5)c(F)c4)cc23)cc1C(=O)O (centres unmarked) [Example 67],activation at 3 µM,3 μM,80%
Cc1ccc(C2CC23C(=O)Nc2cc(Cl)c(-c4ccc(C5(CO)CC5)cc4)cc23)cc1C(=O)O (centres unmarked) [Example 44],Percentage activation of beta 1 at given concentration,10 μM,11% at 10 μM
Cc1ccc(C2CC23C(=O)Nc2cc(Cl)c(-c4ccc5cc[nH]c5c4)cc23)cc1C(=O)O (centres unmarked) [Example 93],activation at 10 µM,10 μM,51%
Cn1c(C(=O)O)ccc1C1CC12C(=O)Nc1cc(Cl)c(-c3ccc(-c4ccccc4O)cc3)cc12 (centres unmarked) [Example 42],activation at 10 µM,10 μM,42%
COc1ccc(C2CC23C(=O)Nc2cc(F)c(-c4ccc(-c5ccc(-n6ccnn6)cc5)cc4)cc23)cc1CC(=O)O (centres unmarked) [Example 177],activation at 1 µM,1 μM,51%
COc1ccc(C2CC23C(=O)Nc2cc(F)c(-c4ccc(-c5ccccc5O)cc4)cc23)cc1CC(=O)O (centres unmarked) [Example 12],activation at 10 µM,10 μM,12%
CC(C)c1ccc(C2CC23C(=O)Nc2cc(Cl)c(-c4ccc(N5CCC[C@H]5CO)cc4)cc23)cc1C(=O)O (some centres unmarked) [Example 51],activation at 3 µM,3 μM,34%
Cn1cc(C2CC23C(=O)Nc2cc(Cl)c(-c4ccc(-c5ccc(-n6cccn6)cc5)cc4)cc23)cc1C(=O)O (centres unmarked) [Example 120],activation at 10 µM,10 μM,48%
Cc1ccc(C2CC23C(=O)N(C)c2cc(F)c(-c4ccc(-c5ccccc5O)cc4)cc23)cc1C(=O)O (centres unmarked) [Example 15],activation at 10 µM,10 μM,176%
O=C(O)Cc1cccc(C2CC23C(=O)Nc2cc(Cl)c(-c4ccc(-c5ccccc5O)cn4)cc23)c1 (centres unmarked) [Example 16],Percentage activation of beta 1 at given concentration,10 μM,23% at 10 μM
COCN1C(=O)C2(CC2c2ccc(C)c(C(=O)O)c2)c2cc(-c3ccc(-c4ccncc4)cc3)c(Cl)cc21 (centres unmarked) [Example 99],activation at 3 µM,3 μM,66%
Cc1ccc(C2CC23C(=O)N(C(C)C)c2cc(Cl)c(-c4ccc(-c5ccncc5)cc4)cc23)cc1C(=O)O (centres unmarked) [Example 104],activation at 3 µM,3 μM,56%
Cc1ccc(C2CC23C(=O)Nc2cc(Cl)c(-c4ccc(-c5ccc(-n6cncn6)cc5)cc4)cc23)cc1CO (centres unmarked) [Example 185],Percentage activation of beta 1 at given concentration,3 μM,34% at 3 μM
Cc1ccc(C2CC23C(=O)Nc2cc(Cl)c(-c4ccc(-c5ccccc5O)cn4)cc23)cc1C(=O)O (centres unmarked) [Example 8],activation at 10 µM,10 μM,25%
Cc1ccc(C2CC23C(=O)Nc2cc(Cl)c(-c4ccc(-n5cccn5)cc4)cc23)cc1C(=O)O (centres unmarked) [Example 166],activation at 3 µM,3 μM,62%
O=C(O)Cc1cccc(C2CC23C(=O)Nc2cc(F)c(-c4ccc(-c5ccc(-n6ccnn6)cc5)cc4)cc23)c1 (centres unmarked) [Example 174],activation at 1 µM,1 μM,87%
Cc1ccc(C2CC23C(=O)Nc2cc(Cl)c(-c4ccc(-c5ccc(-n6cncn6)cc5)cc4)cc23)cc1C(=O)O (centres unmarked) [Example 117],Percentage activation of beta 1 at given concentration,1 μM,165% at 1 μM
Cc1ccc(C2CC23C(=O)Nc2cc(F)c(-c4ccc(-c5ccccc5O)cn4)cc23)cc1C(=O)O (centres unmarked) [Example 9],activation at 10 µM,10 μM,23%
CC(C)c1ccc(C2CC23C(=O)N(C)c2cc(Cl)c(-c4ccc(-c5ncccc5O)cc4)cc23)cc1C(=O)O (centres unmarked) [Example 37],activation at 10 µM,10 μM,112%
O=C(O)Cc1cccc(C2CC23C(=O)Nc2cc(F)c(-c4ccc(-c5ccccc5O)cc4)cc23)c1 (centres unmarked) [Example 31],activation at 3 µM,3 μM,68%
Cc1ccc(C2CC23C(=O)Nc2cc(Cl)c(-c4ccc(-c5ccc(-n6cncn6)cc5)cc4)cc23)cc1CO (centres unmarked) [Example 184],activation at 3 µM,3 μM,36%
Cc1ccc(C2CC23C(=O)Nc2cc(Cl)c(-c4ccc(-c5ccc(-n6cnnn6)cc5)cc4)cc23)cc1C(=O)O (centres unmarked) [Example 140],activation at 3 µM,3 μM,21%
Cc1ccc(C2CC23C(=O)Nc2cc(F)c(-c4ccc(-c5ccccc5O)cc4)cc23)cc1CC(=O)O (centres unmarked) [Example 6],activation at 3 µM,3 μM,66%
Cc1ccc(C2CC23C(=O)Nc2cc(Cl)c(-c4ccc(-c5ccncc5)cc4)cc23)cc1CC(=O)O (centres unmarked) [Example 64],activation at 3 µM,3 μM,81%
Cc1ccc(C2CC23C(=O)Nc2cc(Cl)c(-c4ccc(-c5ccccc5C(C)(C)O)cc4)cc23)cc1C(=O)O (centres unmarked) [Example 53],activation at 3 µM,3 μM,47%
COc1ccc(C2CC23C(=O)Nc2cc(Cl)c(-c4ccc(-c5ccc(-n6cccn6)cc5)cc4)cc23)cc1C(=O)O (centres unmarked) [Example 121],activation at 3 µM,3 μM,91%
Cc1ccc(C2CC23C(=O)Nc2cc(Cl)c(-c4ccc(-c5cccnc5)cc4)cc23)cc1C(=O)O (centres unmarked) [Example 62],activation at 10 µM,10 μM,86%
Cn1cc(C2CC23C(=O)Nc2cc(Cl)c(-c4ccc(-c5ccc(-n6cncn6)cc5)cc4)cc23)cc1C(=O)O (centres unmarked) [Example 126],activation at 1 µM,1 μM,38%
Cc1ccc(C2CC23C(=O)Nc2cc(Cl)c(-c4ccc(Cc5ccccc5O)cc4)cc23)cc1C(=O)O (centres unmarked) [Example 34],activation at 3 µM,3 μM,47%
Cc1ccc(C2CC23C(=O)Nc2c(F)cc(-c4ccc(-c5ccc(-n6cncn6)cc5)cc4)cc23)cc1C(=O)O (centres unmarked) [Example 155],activation at 1 µM,1 μM,28%
Cc1ccc(C2CC23C(=O)Nc2cc(Cl)c(-c4ccc(-c5ccc(-n6cncn6)cc5)cc4)cc23)cc1C(C)(C)O (centres unmarked) [Example 186],activation at 3 µM,3 μM,32%
CC(C)(C(=O)O)c1ccc(C2CC23C(=O)Nc2cc(F)c(-c4ccc(-c5ccc(-n6cncn6)cc5)cc4)cc23)cc1 (centres unmarked) [Example 163],Percentage activation of beta 1 at given concentration,1 μM,131% at 1 μM
Cc1ccc(C2CC23C(=O)N(CC2CC2)c2cc(Cl)c(-c4ccc(-c5ccncc5)cc4)cc23)cc1C(=O)O (centres unmarked) [Example 109],activation at 3 µM,3 μM,83%
Cc1ccc(C2CC23C(=O)Nc2cc(Cl)c(-c4ccc(-c5ccc(-n6cncn6)cc5)c(F)c4)cc23)cc1C(=O)O (centres unmarked) [Example 151],Percentage activation of beta 1 at given concentration,1 μM,25% at 1 μM
Cc1ccc(C2CC23C(=O)Nc2cc(F)c(-c4ccc(-c5ccc(-n6cccn6)cc5)cc4)cc23)cc1C(=O)O (centres unmarked) [Example 144],Percentage activation of beta 1 at given concentration,1 μM,118% at 1 μM
CCN1C(=O)C2(CC2c2ccc(OC)c(CC(=O)O)c2)c2cc(-c3ccc(-c4ccncc4)cc3)c(Cl)cc21 (centres unmarked) [Example 110],activation at 3 µM,3 μM,58%
O=C(O)Cc1cccc(C2CC23C(=O)Nc2cc(Cl)c(-c4ccc(C5(CO)CC5)cc4)cc23)c1 (centres unmarked) [Example 48],activation at 10 µM,10 μM,74%
O=C1Nc2cc(F)c(-c3ccc(-c4ccccc4O)cc3)cc2C12CC2c1cccc(-c2nnn[nH]2)c1 (centres unmarked) [Example 179],activation at 3 µM,3 μM,23%
CC(C)c1ccc(C2CC23C(=O)Nc2cc(Cl)c(-c4ccc(OCCO)cc4)cc23)cc1C(=O)O (centres unmarked) [Example 52],activation at 10 µM,10 μM,51%
Cc1ccc(C2CC23C(=O)Nc2cc(Cl)c(S(=O)(=O)Nc4ccccc4O)cc23)cc1C(=O)O (centres unmarked) [Example 92],activation at 10 µM,10 μM,16%
COc1ccc(C2CC23C(=O)Nc2cc(F)c(-c4ccc(-c5ccccc5O)cc4)cc23)cc1C(=O)O (centres unmarked) [Example 10],activation at 10 µM,10 μM,40%
Cc1ccc(C2CC23C(=O)Nc2cc(F)c(-c4ccc(N5CCOCC5)cc4)cc23)cc1C(=O)O (centres unmarked) [Example 57],activation at 10 µM,10 μM,89%
Cc1ccc(C2CC23C(=O)Nc2cc(Cl)c(-c4ccc(-c5ccc(-n6cncn6)cc5)cc4)cc23)cc1C(=O)O (centres unmarked) [Example 116],activation at 3 µM,3 μM,100%
CN(C)c1cc(-c2ccc(-c3cc4c(cc3Cl)NC(=O)C43CC3c3cccc(CC(=O)O)c3)cc2)ccn1 (centres unmarked) [Example 88],activation at 10 µM,10 μM,132%
O=C(O)Cc1cccc(C2CC23C(=O)Nc2cc(Cl)c(-c4ccc(-c5ccccc5O)cn4)cc23)c1 (centres unmarked) [Example 17],Percentage activation of beta 1 at given concentration,10 μM,88% at 10 μM
O=C(O)Cc1cccc(C2CC23C(=O)Nc2cc(Cl)c(-c4ccc(-c5ccccc5O)cn4)cc23)c1 (centres unmarked) [Example 18],Percentage activation of beta 1 at given concentration,10 μM,168% at 10 μM
Cc1ccc(C2CC23C(=O)Nc2cc(Cl)c(S(=O)(=O)NC4CC4)cc23)cc1C(=O)O (centres unmarked) [Example 90],activation at 10 µM,10 μM,25%
CC(C)c1ccc(C2CC23C(=O)Nc2cc(Cl)c(-c4ccc(-c5ccncc5O)cc4)cc23)cc1C(=O)O (centres unmarked) [Example 22],activation at 10 µM,10 μM,271%
CC(C)(C(=O)O)c1ccc(C2CC23C(=O)Nc2cc(Cl)c(-c4ccc(-c5ccc(-n6cncn6)cc5)cc4)cc23)cc1 (centres unmarked) [Example 137],activation at 3 µM,3 μM,48%
Cc1ccc(C2CC23C(=O)Nc2cc(F)c(-c4ccc(-c5ccccc5O)cc4)cc23)cc1CC(=O)O (centres unmarked) [Example 3],activation at 10 µM,10 μM,166%
Cn1ccc2cc(-c3cc4c(cc3F)NC(=O)C43CC3c3cccc(CC(=O)O)c3)ccc21 (centres unmarked) [Example 56],activation at 10 µM,10 μM,79%
Cc1ccc(C2CC23C(=O)Nc2cc(F)c(-c4ccc(-c5ccc(-n6cccn6)cc5)cc4)cc23)cc1C(=O)O (centres unmarked) [Example 141],activation at 3 µM,3 μM,104%
Cc1ccc(C2CC23C(=O)Nc2cc(Cl)c(-c4ccc(N5CCOCC5)cc4)cc23)cc1C(=O)O (centres unmarked) [Example 66],activation at 10 µM,10 μM,36%
O=C(O)Cc1cccc(C2CC23C(=O)Nc2cc(Cl)c(-c4ccc(-c5ccccc5O)cc4)cc23)c1 (centres unmarked) [Example 26],activation at 3 µM,3 μM,73%
Cn1cc(C2CC23C(=O)Nc2cc(Cl)c(-c4ccc(-c5ccccc5O)cc4)cc23)cc1C(=O)O (centres unmarked) [Example 43],activation at 3 µM,3 μM,43%
Cc1ccc(C2CC23C(=O)N(CCO)c2cc(Cl)c(-c4ccc(-c5ccncc5)cc4)cc23)cc1C(=O)O (centres unmarked) [Example 105],activation at 3 µM,3 μM,81%
COc1ccc(C2CC23C(=O)Nc2cc(F)c(-c4ccc(-c5ccc(-n6cccn6)cc5)cc4)cc23)cc1C(=O)O (centres unmarked) [Example 164],activation at 1 µM,1 μM,19%
CC(C)c1ccc(C2CC23C(=O)Nc2cc(Cl)c(-c4ccc(-c5ccccc5O)cn4)cc23)cc1C(=O)O (centres unmarked) [Example 24],activation at 10 µM,10 μM,85%
